Here are results for eleven compounds from ChEMBL document CHEMBL1133281, “Synthesis and HIV-1 integrase inhibitory activities of caffeoylglucosides” (Bioorg Med Chem Lett, 2000).

Each structure is given as a SMILES string.

Sequence of Human immunodeficiency virus type 1 integrase (Q7ZJM1 whole entry): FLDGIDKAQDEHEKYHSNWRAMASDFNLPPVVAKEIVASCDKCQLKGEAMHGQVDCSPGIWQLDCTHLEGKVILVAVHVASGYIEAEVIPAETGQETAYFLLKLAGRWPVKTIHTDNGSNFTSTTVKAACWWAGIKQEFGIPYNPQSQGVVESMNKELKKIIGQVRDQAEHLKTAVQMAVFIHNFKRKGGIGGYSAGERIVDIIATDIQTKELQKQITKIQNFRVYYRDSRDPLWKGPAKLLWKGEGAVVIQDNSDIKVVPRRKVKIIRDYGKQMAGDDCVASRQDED

The test addresses Human immunodeficiency virus type 1 integrase (Human immunodeficiency virus 1, UniProt Q7ZJM1). Description: Inhibitory activity against HIV-1 integrase.
As for `CO[C@H]1O[C@H](CO)[C@@H](O)[C@H](OC(=O)/C=C/c2ccc(O)c(O)c2)[C@H]1OC(=O)/C=C/c1ccc(O)c(O)c1`, half-maximal inhibition (IC50) required 29.1 µM. In the case of `CO[C@@H]1O[C@H](COC(=O)/C=C/c2ccc(O)c(O)c2)[C@@H](OC(=O)/C=C/c2ccc(O)c(O)c2)[C@H](OC(=O)/C=C/c2ccc(O)c(O)c2)[C@H]1OC(=O)/C=C/c1ccc(O)c(O)c1`, the IC50 (as a rule, the midpoint of a concentration-inhibition curve) is 89.6 µM. In turn, `CO[C@H]1O[C@H](COC(=O)/C=C/c2ccc(O)c(O)c2)[C@@H](O)[C@H](O)[C@H]1OC(=O)/C=C/c1ccc(O)c(O)c1` came in with an IC50 of 70 µM.

`CO[C@H]1O[C@H](COC(=O)/C=C/c2ccc(O)c(O)c2)[C@@H](O)[C@H](OC(=O)/C=C/c2ccc(O)c(O)c2)[C@H]1O` showed an IC50 of 82.4 µM. In turn, `CO[C@@H]1O[C@H](COC(=O)/C=C/c2ccc(O)c(O)c2)[C@@H](O)[C@H](O)[C@H]1OC(=O)/C=C/c1ccc(O)c(O)c1` came in with an IC50 of 30.5 µM. For the compound `COC1O[C@H](CO)[C@@H](O)[C@H](OC(=O)c2cc(O)c(O)c(O)c2)[C@H]1OC(=O)c1cc(O)c(O)c(O)c1` (stereo partly specified), half-maximal inhibition (IC50) required 5.4 µM. `CO[C@@H]1O[C@H](COC(=O)/C=C/c2ccc(O)c(O)c2)[C@@H](O)[C@H](OC(=O)/C=C/c2ccc(O)c(O)c2)[C@H]1O` gave an IC50 of 35.1 µM. The figure for `COc1cc(/C=C/C(=O)CC(=O)/C=C/c2ccc(O)c(OC)c2)ccc1O` [CURCUMIN] is 57.5 µM; for `C[C@@H]1O[C@@H](O[C@@H]2[C@@H](O)[C@H](OCCc3ccc(O)c(O)c3)O[C@H](CO)[C@H]2OC(=O)/C=C/c2ccc(O)c(O)c2)[C@H](O)[C@H](O)[C@H]1O` [ACETOSIDE] it is 7.8 µM. Take `CO[C@H]1O[C@H](COC(=O)/C=C/c2ccc(O)c(O)c2)[C@@H](OC(=O)/C=C/c2ccc(O)c(O)c2)[C@H](OC(=O)/C=C/c2ccc(O)c(O)c2)[C@H]1OC(=O)/C=C/c1ccc(O)c(O)c1`: the IC50 was greater than 119 µM. The compound `CO[C@@H]1O[C@H](CO)[C@@H](O)[C@H](OC(=O)/C=C/c2ccc(O)c(O)c2)[C@H]1OC(=O)/C=C/c1ccc(O)c(O)c1` had an IC50 of 31.8 µM.
